Measurements from patent US20140243335A1, “SUBSTITUTED HYDOXAMIC ACIDS AND USES THEREOF” (Millennium Pharmaceuticals, Inc., priority 2010, published 2014).

Biological target: T1, purified human HDAC6 (Homo sapiens, UniProt Q9UBN7)
T1 construct: purchased BPS Bioscience 5006
T1 sequence (Q9UBN7 1-1215): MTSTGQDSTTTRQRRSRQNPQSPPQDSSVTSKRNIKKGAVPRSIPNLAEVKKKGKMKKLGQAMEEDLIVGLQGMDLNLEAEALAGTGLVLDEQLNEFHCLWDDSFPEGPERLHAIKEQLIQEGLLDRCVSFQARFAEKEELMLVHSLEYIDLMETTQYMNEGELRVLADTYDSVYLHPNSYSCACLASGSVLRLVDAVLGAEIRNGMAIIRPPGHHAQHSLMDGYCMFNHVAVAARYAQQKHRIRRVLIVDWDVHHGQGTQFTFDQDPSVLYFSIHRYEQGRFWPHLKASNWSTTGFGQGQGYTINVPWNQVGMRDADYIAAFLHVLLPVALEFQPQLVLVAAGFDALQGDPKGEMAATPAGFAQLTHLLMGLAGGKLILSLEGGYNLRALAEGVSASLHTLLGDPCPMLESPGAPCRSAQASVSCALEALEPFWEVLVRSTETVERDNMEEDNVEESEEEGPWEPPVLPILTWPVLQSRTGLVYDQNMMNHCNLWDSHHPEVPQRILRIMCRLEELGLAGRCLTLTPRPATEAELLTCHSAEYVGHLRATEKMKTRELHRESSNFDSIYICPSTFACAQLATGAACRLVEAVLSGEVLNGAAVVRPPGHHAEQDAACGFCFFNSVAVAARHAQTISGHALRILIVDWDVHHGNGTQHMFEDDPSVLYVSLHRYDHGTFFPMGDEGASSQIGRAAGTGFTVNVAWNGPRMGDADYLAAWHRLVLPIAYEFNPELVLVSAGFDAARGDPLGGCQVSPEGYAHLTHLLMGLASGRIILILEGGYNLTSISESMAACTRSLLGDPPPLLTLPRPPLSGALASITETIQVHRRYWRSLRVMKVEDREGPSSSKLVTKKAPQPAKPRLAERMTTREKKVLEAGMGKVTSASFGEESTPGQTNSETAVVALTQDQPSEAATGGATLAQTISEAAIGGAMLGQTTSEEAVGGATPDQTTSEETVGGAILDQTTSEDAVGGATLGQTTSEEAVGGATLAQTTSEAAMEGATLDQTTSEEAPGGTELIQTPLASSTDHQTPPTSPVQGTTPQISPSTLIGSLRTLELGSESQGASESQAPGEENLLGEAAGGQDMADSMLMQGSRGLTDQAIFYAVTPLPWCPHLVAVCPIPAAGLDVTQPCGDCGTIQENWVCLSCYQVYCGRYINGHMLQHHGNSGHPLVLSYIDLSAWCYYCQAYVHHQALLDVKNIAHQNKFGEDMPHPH
Assay: HDAC6 Enzyme Assay
Format: biochemical
Conditions: HDAC6 inhibition at a compound concentration of 0.412 μM; read-out: Percent Inhibition at 0.412 μM

| Structure (SMILES) | inhibition at 0.412 µM [%] |
| --- | --- |
| O=C(NO)c1ccc2c(c1)CC(NCCc1ccccc1)CC2 (centres unmarked) [Compound I-81, N-hydroxy-7-[(2-phenylethyl)amino]-5,6,7,8-tetrahydronaphthalene-2-carboxamide] | 84 |
| O=C(CC1C[C@@H]2CC[C@H]1C2)NC1CCCc2cc(C(=O)NO)ccc21 (stereo partly drawn) [Compound I-26, 5-{[(1S,4R)-bicyclo[2.2.1]hept-2-ylacetyl]amino}-N-hydroxy-5,6,7,8-tetrahydronaphthalene-2-carboxamide] | 21 |
| CC1(C(=O)N2C3CCC2c2cc(C(=O)NO)ccc23)CCCCC1 (centres unmarked) [Compound I-196, N-hydroxy-9-[(1-methylcyclohexyl)carbonyl]-1,2,3,4-tetrahydro-1,4-epiminonaphthalene-6-carboxamide] | 32 |
| O=C(NO)c1ccc2c(c1)CCCC2NC(=O)c1cc2ccccc2s1 (centres unmarked) [Compound I-24, N-{6-[(hydroxyamino)carbonyl]-1,2,3,4-tetrahydronaphthalen-1-yl}-1-benzothiophene-2-carboxamide] | 46 |
| O=C(NO)c1ccc2c(c1)CC(Oc1ccc(Cl)cc1)CC2 (centres unmarked) [Compound I-91, 7-(4-chlorophenoxy)-N-hydroxy-5,6,7,8-tetrahydronaphthalene-2-carboxamide] | 93 |
| O=C(NO)c1ccc2c(c1)CCC[C@H]2NC(=O)c1cc2cc(Cl)ccc2o1 [Compound I-63, 5-chloro-N-{(1R)-6-[(hydroxyamino)carbonyl]-1,2,3,4-tetrahydronaphthalen-1-yl}-1-benzofuran-2-carboxamide] | 18 |
| Cc1nc(C(=O)N2C3CCC2c2cc(C(=O)NO)ccc23)cs1 (centres unmarked) [Compound I-208, N-hydroxy-9-[(2-methyl-1,3-thiazol-4-yl)carbonyl]-1,2,3,4-tetrahydro-1,4-epiminonaphthalene-6-carboxamide] | 34 |
| Cn1c(C(=O)N[C@@H]2CCCc3cc(C(=O)NO)ccc32)cc2ccccc21 [Compound I-64, N-{(1R)-6-[(hydroxyamino)carbonyl]-1,2,3,4-tetrahydronaphthalen-1-yl}-1-methyl-1H-indole-2-carboxamide] | 18 |
| Cc1ccc2[nH]c(C(=O)NC3CCCc4cc(C(=O)NO)ccc43)cc2c1 (centres unmarked) [Compound I-39, N-{6-[(hydroxyamino)carbonyl]-1,2,3,4-tetrahydronaphthalen-1-yl}-5-methyl-1H-indole-2-carboxamide] | 60 |
| Cn1cccc1C(=O)N[C@@H]1CCCc2cc(C(=O)NO)ccc21 [Compound I-65, (R)-N-(6-(hydroxycarbamoyl)-1,2,3,4-tetrahydronaphthalen-1-yl)-1-methyl-1H-pyrrole-2-carboxamide] | 16 |
| O=C(NO)c1ccc2c(c1)CCCC2NC(=O)c1cc2cc(Cl)ccc2o1 (centres unmarked) [Compound I-40, 5-chloro-N-{6-[(hydroxyamino)carbonyl]-1,2,3,4-tetrahydronaphthalen-1-yl}-1-benzofuran-2-carboxamide] | 48 |
| CC(C)(C)C(=O)N[C@@H]1CCc2ccc(C(=O)NO)cc2C1 [Compound I-73, (7R)-7-[(2,2-dimethylpropanoyl)amino]-N-hydroxy-5,6,7,8-tetrahydronaphthalene-2-carboxamide] | 73 |
| Cc1oc(-c2ccccc2)cc1C(=O)NC1CCc2cc(C(=O)NO)ccc2C1 (centres unmarked) [Compound I-59, N-{6-[(hydroxyamino)carbonyl]-1,2,3,4-tetrahydronaphthalen-2-yl}-2-methyl-5-phenyl-3-furamide] | 56 |

Further lines, results first:

| inhibition at 0.412 µM [%] | Structure (SMILES) |
| --- | --- |
| 88 | CC(C)(C)OC(=O)N1CCC(NC(=O)c2cc(OC3CCc4cc(C(=O)NO)ccc4C3)ccn2)CC1 (centres unmarked) [Compound I-223, tert-butyl 4-({[4-({6-[(hydroxyamino)carbonyl]-1,2,3,4-tetrahydronaphthalen-2-yl}oxy)pyridin-2-yl]carbonyl}amino)piperidine-1-carboxylate] |
| 74 | O=C(NO)c1ccc2c(c1)CC(CCc1ccccc1)CC2 (centres unmarked) [Compound I-93, N-hydroxy-7-(2-phenylethyl)-5,6,7,8-tetrahydronaphthalene-2-carboxamide] |
| 85 | CC(=O)Nc1cccc(C2CCc3cc(C(=O)NO)ccc3C2)c1 (centres unmarked) [Compound I-102, 6-[3-(acetylamino)phenyl]-N-hydroxy-5,6,7,8-tetrahydronaphthalene-2-carboxamide] |
| 73 | CC1(C(=O)NC2CCc3cc(C(=O)NO)ccc3C2)CCNCC1 (centres unmarked) [Compound I-170, N-{6-[(hydroxyamino)carbonyl]-1,2,3,4-tetrahydronaphthalen-2-yl}-4-methylpiperidine-4-carboxamide] |
| 56 | COc1ccccc1C1CCc2cc(C(=O)NO)ccc2C1 (centres unmarked) [Compound I-104, N-hydroxy-6-(2-methoxyphenyl)-5,6,7,8-tetrahydronaphthalene-2-carboxamide] |
| 41 | CC(C)(C)OC(=O)N1CCC(C2CCc3ccc(C(=O)NO)cc3C2)CC1 (centres unmarked) [Compound I-221, tert-butyl 4-{7-[(hydroxyamino)carbonyl]-1,2,3,4-tetrahydronaphthalen-2-yl}piperidine-1-carboxylate] |
| 90 | CC(C)N1CCC(C)(C(=O)Nc2cc(OC3CCc4cc(C(=O)NO)ccc4C3)ccn2)CC1 (centres unmarked) [Compound I-219, N-[4-({6-[(hydroxyamino)carbonyl]-1,2,3,4-tetrahydronaphthalen-2-yl}oxy)pyridin-2-yl]-1-isopropyl-4-methylpiperidine-4-carboxamide] |
